Data as given in patent US20110009332A1, “Therapeutic Treatment Of Wounds” (SOUTHWEST RESEARCH INSTITUTE, priority 2009, published 2011).
Where a SMILES comes first, the peptide text is derived from it. The star is where a group is joined. Cbz = O=C(OCc1ccccc1)*; OtBu = CC(C)(C)O*

System: BMP-1
Assay: BMP-1 gene expression (qPCR, normalized over 18S) in human dermal fibroblasts
Assay type: cell-based
Description: An examination of gene expression of BMP-1 was conducted using a number of proteasome inhibitors including, proteasome inhibitor-1, curcumin, MG-132 and bortezomib. Human neonatal dermal fibroblasts (AllCells, Catalog No. HN006001) were maintained in Dulbecco's modified Eagle's medium (DMEM) supplemented with 10% fetal bovine serum. Early passage cells were plated at 2×10^4 cells/cm^2 and grown in humidified 5% CO2 at 37° C. for 24 hours. Spent media was replaced the following day with assay media including Proteasome inhibitor-1 was added in DMEM at 1 μM and 0.1 μM. Untreated cells were used as the control group. For the human osteogenesis PCR array, the experimental group was treated only at 1 μM. In addition, in separate trials, spent media was replace by assay media of curcumin added in DMEM at 10 μM and 100 μM, MG-132 in DMEM at 0.1 μM and 1 μM, and bortezomib in DMEM at 0.1 μm and 1 μM.
Phenol-chloroform extraction was performed to isolate the total RNA for real time polymerase chain reaction array. More specifically, the total RNA was prepared using TRI REAGENT (Ambion, product number 9738), wherein the total RNA was obtained from the human neonatal dermal fibroblasts. Note that isolation was performed as per the instructions provided with the TRI REAGENT. The RNA was used for subsequent quantitative polymerase chain reaction (qPRC) gene expression of BMP1 measured using hydrolysis probes (TAQMAN probes available from Applied Biosystems) as described further below.
Concentration and integrity of the obtained total RNA was assessed by absorbance in a spectrophotometer at 260 nm and 280 nm and by electrophoresis in 1% agarose with formaldehyde loading dye. For TAQMAN gene expression assays, cDNA was synthesized from 2 μg of total RNA using the High Capacity cDNA Reverse Transcription Kit (Applied Biosystems, product number 4368814), again following the protocol supplied with the kit. The resulting cDNA was diluted 1:10.
For TAQMAN gene expression, gene-specific fluorescent labeled TAQMAN primers for FAM-BMP1 (Applied Biosystems, product Hs0098677.g1) and TAQMAN reference VIC-18S ribosomal RNA (Applied Biosystems, product number 4310893E) were used to target the gene of interest. A cocktail of universal master mix (Applied Biosystems, product number 4369016) was prepared individually for both set of primers which contained Taq Polymerase, dNTPs, and buffer. Template cDNA's were added separately to respective individual wells in triplicate samples. PCR was performed on StepOne Plus Real Time System instrument (Applied Biosystems). The amplification program consisted of 1 cycle of 95° C. with 10 minute hold (hot start) followed by 50 cycles of 95° C. with 15 second annealing hold and 1 minute 60° C. specified acquisition hold.
For human osteogenisis PCR array, total RNA was prepared using silica matrix purification using RNEASY MINI KIT (Qiagen, product number 74101) according to the manufacturer's recommendations. cDNA was synthesized from 1 μg of purified DNA-free RNA accordingly to RT^2First Strand Kit (SABiosciences, C-03). The resulting cDNA was diluted 1:30 and amplified. The procedure for the PCR array using real-time PCR is based on the RT^2 Profiler PCR array system instructions for Human Osteogenesis (SABiosciences, product number PAHS-026C). A cocktail reaction mix was setup as recommended by the PCR manufacturer (SABiosceiences, product number PA-012). PCR was performed using the same temperature parameters as used with the StepOne Plus Real Time System instrument. The Ct value of endogenous reference gene (i.e. 18s) was used to control for input RNA and then used to normalize target gene (i.e. BMP-1) tested from the same cDNA sample (Δ Ct), and then calibrated to an internal reference sample (ΔΔCt). Change in gene expression was determined by the expression 2̂-(ΔΔCt). […]

[1] = 0.1 μM inhibitor, FIG. 27, nontreated approximately 1.52 (MG132) / 1.50 (bortezomib), may not be statistically significant
[2] = 1 μM inhibitor, FIG. 27, nontreated approximately 1.52 (MG132) / 1.50 (bortezomib), may not be statistically significant

Row | SMILES | BMP-1/18S mRNA levels [1] [a.u.] | BMP-1/18S mRNA levels [2] [a.u.] | also measured
1 | CC(C)C[C@@H](C=O)NC(=O)[C@H](CC(C)C)NC(=O)[C@H](CC(C)C)NC(=O)OCc1ccccc1 [MG132] (Cbz-Leu-Leu-Leu-aldehyde) | 1.10 | 1.09 | 
2 | CC[C@H](C)[C@H](NC(=O)OCc1ccccc1)C(=O)N[C@@H](CCC(=O)OC(C)(C)C)C(=O)N[C@@H](C)C(=O)N[C@H](C=O)CC(C)C [PS-1, Z-Ile-Glu(OBu^t)-Ala-Leu-H] (Cbz-IE(OtBu)AL-aldehyde) |  |  | BMP-1/18S mRNA levels (0.1 μM PS-1, FIG. 25, nontreated approximately 1.26): 0.436 a.u.; BMP-1/18S mRNA levels (1.0 μM PS-1, FIG. 25, nontreated approximately 1.26): 0.480 a.u.
3 | CC(C)C[C@H](NC(=O)[C@H](Cc1ccccc1)NC(=O)c1cnccn1)B(O)O [bortezomib] | 1.27 | 1.27 | 
4 | COc1cc(/C=C/C(=O)CC(=O)/C=C/c2ccc(O)c(OC)c2)ccc1O [curcumin] |  |  | BMP-1/18S mRNA levels (10 μM curcumin, FIG. 26, nontreated approximately 1.26): 1.68 a.u.; BMP-1/18S mRNA levels (100 μM curcumin, FIG. 26, nontreated approximately 1.26): 0.882 a.u.
